According to US20230263822A1, “MODULATION OF FACTOR 11 EXPRESSION” (Ionis Pharmaceuticals, Inc., priority 2008, published 2023):
Read-outs that look alike come from different tables or passages of the source. Strand notation (5' to 3'): a small letter for the sugar, then the base; units joined by * are phosphorothioate-linked, units joined directly phosphodiester-linked; [ ] holds rarer units or linkages, { } end groups; capitals alone tell only the bases. e = 2'-O-(2-methoxyethyl) (MOE); [5mC] = 5-methylcytosine; d = 2'-deoxy (DNA)

Legend:
[1] = Tolerability in CD1 mice: liver function (Example 41); settings: 50 mg/kg s.c. twice per week for 6 weeks, plasma
[2] = Tolerability in CD1 mice: kidney function, BUN (Example 41); settings: 50 mg/kg s.c. twice per week for 6 weeks, plasma
[3] = Tolerability in CD1 mice: kidney function, BUN (Example 37); settings: plasma, 50 mg/kg s.c. twice per week for 6 weeks
[4] = mouse, in vivo, sc, 50 mg/kg
[5] = Liver function, ALT, AST, bilirubin in cynomolgus monkeys (Example 45); assay type: in vivo; settings: plasma
Protocol: Groups, each consisting of two male and three female monkeys, were injected subcutaneously with ISIS 416838, ISIS 416850, ISIS 416858, ISIS 416864, or ISIS 417002 in escalating doses. Antisense oligonucleotide was administered to the monkeys at 5 mg/kg three times per a week for week 1; 5 mg/kg twice per week for weeks 2 and 3; 10 mg/kg three times per week for week 4; 10 mg/kg twice per week for weeks 5 and 6; 25 mg/kg three times per week for week 7; and 25 mg/kg twice per week for weeks 8, 9, 10, 11, and 12. One control group, consisting of two male and three female monkeys, was injected subcutaneously with PBS according to the same dosing regimen. An additional experimental group, consisting of two male and three female monkeys, was injected subcutaneously with ISIS 416850 in a chronic, lower dose regimen. Antisense oligonucleotide was administered to the monkeys at 5 mg/kg three times per week for week 1; 5 mg/kg twice per week for week 2 and 3; 10 mg/kg three times per week for week 4; and 10 mg/kg twice per week for weeks 5 to 12. Body weights were measured weekly. Blood samples were collected 14 days and 5 days before the start of treatment and subsequently once per week for Factor 11 protein activity analysis in plasma, fibrinogen measurement, PT and aPTT measurements, bleeding times, and measurement of various hematologic factors. On day 85, the monkeys were euthanized by exsanguination while under deep anesthesia, and organs harvested for further analysis.
The ISIS oligonucleotide, ISIS 416850, given with the chronic dose regimen is distinguished from the other oligonucleotides with an asterisk (*).

[6] = Tolerability in Sprague-Dawley rats: hematology assays (Example 35); settings: 50 mg/kg s.c. twice per week for 6 weeks; for HCT / MCH / MCHC / MCV: title says % control
[7] = Tolerability in CD1 mice: body weight and organ weight (Example 41); settings: 50 mg/kg s.c. twice per week for 6 weeks; for body weight: increase in grams over the PBS control weight taken before the start of treatment; for Kidney weight / Liver weight / Spleen weight: percentage of the body weight
[8] = mouse, in vivo
Protocol: A control group of five mice was injected subcutaneously with PBS for 2 weeks. All experimental groups (i.e. ASO treated mice at 2, 4, 6 weeks) were compared to the control group (i.e. PBS, 2 weeks).
Blood obtained from all mice groups were sent to Antech Diagnostics for hematocrit (HCT), mean corpuscular volume (MCV), mean corpuscular hemoglobin (MCH), and mean corpuscular hemoglobin concentration (MCHC) measurements and analyses, as well as measurements of the various blood cells, such as WBC (neutrophils, lymphocytes, and monocytes), RBC, and platelets, and total hemoglobin content.

[9] = day 22, chronic dose regimen (*)
[10] = day 22, escalating dose regimen
[11] = day 43, chronic dose regimen (*)
[12] = day 43, escalating dose regimen
[13] = day 64, escalating dose regimen
[14] = day 85, escalating dose regimen
[15] = day −14, chronic dose regimen (*)
[16] = day −14, escalating dose regimen

Substance: ISIS 416850: MOE gapmer, nucleobases 1275 to 1318 of SEQ ID NO: 1 (Table 8) (antisense TGCACAGTTTCTGGCAGGCC; MOE gapmer, wing and gap sizes not given here)
- ALT [1]: 90 IU/L
- AST [1]: 115 IU/L
- Albumin [1]: 3.2
- Bilirubin [1]: 0.20 mg/dL
- BUN [2]: 28 mg/dL
- BUN [3]: 24 mg/dL
- ALT [4]: 75 IU/L
- AST [4]: 99 IU/L
- Bilirubin [4]: 0.21 mg/dL
- Cholesterol [4]: 142 mg/dL
- ALT [5, 9]: 42 IU/L
- AST [5, 9]: 39 IU/L
- Bilirubin [5, 9]: 0.19 mg/dL
- ALT [5, 10]: 41 IU/L
- AST [5, 10]: 45 IU/L
- Bilirubin [5, 10]: 0.13 mg/dL
- ALT [5, 11]: 41 IU/L
- AST [5, 11]: 40 IU/L
- Bilirubin [5, 11]: 0.18 mg/dL
- ALT [5, 12]: 43 IU/L
- AST [5, 12]: 50 IU/L
- Bilirubin [5, 12]: 0.13 mg/dL
- ALT [5, 13]: 60 IU/L
- AST [5, 13]: 56 IU/L
- Bilirubin [5, 13]: 0.14 mg/dL
- ALT [5, 14]: 75 IU/L
- AST [5, 14]: 82. IU/L
- Bilirubin [5, 14]: 0.14 mg/dL
- ALT [5, 15]: 80 IU/L
- AST [5, 15]: 100 IU/L
- Bilirubin [5, 15]: 0.28 mg/dL
- ALT [5, 16]: 54 IU/L
- AST [5, 16]: 81 IU/L
- Bilirubin [5, 16]: 0.21 mg/dL
- Platelets [6]: 26 10^3/μL
- RBC [6]: 7
- WBC [6]: 16 nL⁻¹
- lymphocytes [6]: 8%
- monocytes [6]: 11%
- neutrophils [6]: 48%
- HCT [6]: 5%
- MCH [6]: 4
- MCHC [6]: 2%
- MCV [6]: 3
- body weight [7]: 11 g
- Kidney weight [7]: 1.5%
- Liver weight [7]: 6%
- Spleen weight [7]: 0.4%

Substance: ISIS 445522: 5-8-5 or 6-8-6 MOE microwalk gapmer (Table 44) (antisense eG*e[5mC]*eA*e[5mC]*eA*dG*dT*dT*dT*d[5mC]*dT*dG*dG*e[5mC]*eA*eG*eG*e[5mC])
- ALT [1]: 51 IU/L
- AST [1]: 110 IU/L
- Albumin [1]: 3.4
- Bilirubin [1]: 0.19 mg/dL
- BUN [2]: 28 mg/dL
- body weight [7]: 11 g
- Kidney weight [7]: 1.7%
- Liver weight [7]: 6%
- Spleen weight [7]: 0.4%

Substance: ISIS 416864: MOE gapmer, nucleobases 1275 to 1318 of SEQ ID NO: 1 (Table 8) (antisense GGCAGCGGACGGCATTGGTG; MOE gapmer, wing and gap sizes not given here)
- BUN [3]: 24 mg/dL
- ALT [4]: 36 IU/L
- AST [4]: 67 IU/L
- Bilirubin [4]: 0.19 mg/dL
- Cholesterol [4]: 152 mg/dL
- ALT [5, 10]: 37 IU/L
- AST [5, 10]: 41 IU/L
- Bilirubin [5, 10]: 0.22 mg/dL
- ALT [5, 12]: 36 IU/L
- AST [5, 12]: 40 IU/L
- Bilirubin [5, 12]: 0.17 mg/dL
- ALT [5, 13]: 43 IU/L
- AST [5, 13]: 46 IU/L
- Bilirubin [5, 13]: 0.16 mg/dL
- ALT [5, 14]: 43 IU/L
- AST [5, 14]: 56 IU/L
- Bilirubin [5, 14]: 0.17 mg/dL
- ALT [5, 16]: 54 IU/L
- AST [5, 16]: 76 IU/L
- Bilirubin [5, 16]: 0.31 mg/dL
- MCHC ([8]; sc, 50 mg/kg): 31%
- Platelets [6]: 12 10^3/μL
- RBC [6]: 4
- WBC [6]: 15 nL⁻¹
- lymphocytes [6]: 2%
- monocytes [6]: 29%
- neutrophils [6]: 26%
- HCT [6]: 2%
- MCH [6]: 2
- MCHC [6]: 4%
- MCV [6]: 4

Substance: ISIS 416858: MOE gapmer, nucleobases 1275 to 1318 of SEQ ID NO: 1 (Table 8) (antisense ACGGCATTGGTGCACAGTTT; MOE gapmer, wing and gap sizes not given here)
- BUN [3]: 23 mg/dL
- ALT [4]: 640 IU/L
- AST [4]: 547 IU/L
- Bilirubin [4]: 0.28 mg/dL
- Cholesterol [4]: 181 mg/dL
- ALT [5, 10]: 28 IU/L
- AST [5, 10]: 38 IU/L
- Bilirubin [5, 10]: 0.18 mg/dL
- ALT [5, 12]: 36 IU/L
- AST [5, 12]: 39 IU/L
- Bilirubin [5, 12]: 0.14 mg/dL
- ALT [5, 13]: 47 IU/L
- AST [5, 13]: 50 IU/L
- Bilirubin [5, 13]: 0.12 mg/dL
- ALT [5, 14]: 50 IU/L
- AST [5, 14]: 49 IU/L
- Bilirubin [5, 14]: 0.14 mg/dL
- ALT [5, 16]: 47 IU/L
- AST [5, 16]: 58 IU/L
- Bilirubin [5, 16]: 0.27 mg/dL
- RBC count [8]: 9 cells/pL
- Platelets [6]: 19 10^3/μL
- RBC [6]: 2
- WBC [6]: 28 nL⁻¹
- lymphocytes [6]: 3%
- monocytes [6]: 10%
- neutrophils [6]: 20%
- HCT [6]: 3%
- MCH [6]: 2
- MCHC [6]: 1%
- MCV [6]: 2

Substance: ISIS 445531: 5-8-5 or 6-8-6 MOE microwalk gapmer (Table 44) (antisense eG*eG*e[5mC]*eA*eT*dT*dG*dG*dT*dG*d[5mC]*dA*d[5mC]*eA*eG*eT*eT*eT)
- ALT [1]: 60 IU/L
- AST [1]: 127 IU/L
- Albumin [1]: 3.2
- Bilirubin [1]: 0.16 mg/dL
- BUN [2]: 27 mg/dL
- body weight [7]: 10 g
- Kidney weight [7]: 1.5%
- Liver weight [7]: 6%
- Spleen weight [7]: 0.5%
